In patent US10364245B2 (CHIESI FARMACEUTICI S.p.A., priority 2017, dated 2019):
pIC50: −log10 of the molar value.

How the values were obtained:
[1] = test system: Peripheral Blood Mononuclear Cells (PBMCs), TNFα release; assay: LPS-stimulated PBMC TNFα release assay; type: cell-based; details: human PBMC, LPS (10 ng/ml), 18 h, compound 1 h before LPS; read-out: LPS-stimulated PBMC TNFα release inhibition
Procedure, shortened: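 Human PBMCs from healthy donors, serum-starved 3 h, then pre-incubated 1 h at 37 °C with compound in 1% FBS medium before LPS (10 ng/ml) for 18 h. Supernatant TNFα measured by MSD; IC50 from dose-response as % inhibition of control, at least three experiments.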

p38 alpha = biological target: T1, p38 alpha (Homo sapiens, UniProt Q16539); assay: P38 alpha enzyme inhibition assay (Alphascreen kinase activity assay); type: biochemical; details: 100 pM p38 alpha, 2 hours preincubation at 25° C., 250 μM ATP, ATF-2 fusion protein; read-out: p38α inhibition
T1 construct: purchased Invitrogen PV3304
Procedure, shortened: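 100 pM p38 alpha preincubated 2 h at 25 °C with compound and 0.3 μg/ml ATF-2 fusion substrate (HEPES pH 7.5, MgCl2, 1% DMSO). Reaction started with 250 μM ATP, run 1 h at 25 °C, stopped with EDTA; phospho-ATF2 detected by AlphaScreen luminescence. IC50 from concentration-response curves.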

T1 sequence (Q16539 whole entry, the tested form may be a part): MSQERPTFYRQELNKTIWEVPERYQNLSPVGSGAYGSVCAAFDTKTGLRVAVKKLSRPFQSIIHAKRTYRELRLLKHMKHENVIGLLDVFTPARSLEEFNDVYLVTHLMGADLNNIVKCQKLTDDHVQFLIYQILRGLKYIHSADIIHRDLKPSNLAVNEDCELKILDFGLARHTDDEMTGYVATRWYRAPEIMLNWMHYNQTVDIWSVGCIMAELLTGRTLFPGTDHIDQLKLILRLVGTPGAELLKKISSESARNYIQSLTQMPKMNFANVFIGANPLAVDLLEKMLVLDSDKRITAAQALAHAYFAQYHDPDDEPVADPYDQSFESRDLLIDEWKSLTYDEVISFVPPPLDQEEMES

Row | pIC50 (p38 alpha) | Compound | pIC50 [1]
1 | 8.00 to 9.00 | CC(C)(C)c1cc(NC(=O)N[C@H]2CC[C@@H](Oc3ccc4nnc(C5CCCC5)n4c3)c3ccccc32)nc(C(=O)NCCN2CCOCC2)n1 [Example 75, 4-(tert-butyl)-6-(3-((1S,4R)-4-((3-cyclopentyl-[1,2,4]triazolo[4,3-a]pyridin-6-yl)oxy)-1,2,3,4-tetrahydronaphthalen-1-yl)ureido)-N-(2-morpholinoethyl)-pyrimidine-2-carboxamide] | < 8.30
2 | 8.00 to 9.00 | COCCN(C)CCNC(=O)c1nc(NC(=O)N[C@H]2CC[C@@H](Oc3ccc4nnc(C5CCCC5)n4c3)c3ccccc32)cc(C(C)(C)C)n1 [Example 76, 4-(tert-butyl)-6-(3-((1S,4R)-4-((3-cyclopentyl-[1,2,4]triazolo[4,3-a]pyridin-6-yl)oxy)-1,2,3,4-tetrahydronaphthalen-1-yl)ureido)-N-(2-((2-methoxyethyl)(methyl)-amino)ethyl)pyrimidine-2-carboxamide] | < 8.30
3 | > 9.00 | CN(CCO)CCNC(=O)c1nc(NC(=O)N[C@H]2CC[C@@H](Oc3ccc4nnc(C(C)(C)C)n4c3)c3ccccc32)cc(C(C)(C)C)n1 [Example 77, 4-(tert-butyl)-6-(3-((1S,4R)-4-((3-(tert-butyl)-[1,2,4]triazolo[4,3-a]pyridin-6-yl)oxy)-1,2,3,4-tetrahydronaphthalen-1-yl)ureido)-N-(2-((2-hydroxyethyl)(methyl)-amino)ethyl)pyrimidine-2-carboxamide] | 8.30 to 9.00
4 | > 9.00 | CC(C)(C)c1cc(NC(=O)N[C@H]2CC[C@@H](Oc3ccc4nnc(C(C)(C)C)n4c3)c3ccccc32)nc(C(=O)NCCN2CC(O)C2)n1 [Example 78, 4-(tert-butyl)-6-(3-((1S,4R)-4-((3-(tert-butyl)-[1,2,4]triazolo[4,3-a]pyridin-6-yl)oxy)-1,2,3,4-tetrahydronaphthalen-1-yl)ureido)-N-(2-(3-hydroxyazetidin-1-yl)ethyl)pyrimidine-2-carboxamide] | < 8.30
5 | 8.00 to 9.00 | CC(C)(C)c1cc(NC(=O)N[C@H]2CC[C@@H](Oc3ccc4nnc(C(C)(C)C)n4c3)c3ccccc32)nc(C(=O)NCCCN2CCOCC2)n1 [Example 80, 4-(tert-butyl)-6-(3-((1S,4R)-4-((3-(tert-butyl)-[1,2,4]triazolo[4,3-a]pyridin-6-yl)oxy)-1,2,3,4-tetrahydronaphthalen-1-yl)ureido)-N-(3-morpholinopropyl)-pyrimidine-2-carboxamide] | 8.30 to 9.00
6 | > 9.00 | CN1CC(NC(=O)c2nc(NC(=O)N[C@H]3CC[C@@H](Oc4ccc5nnc(C(C)(C)C)n5c4)c4ccccc43)cc(C(C)(C)C)n2)C1 [Example 81, 4-(tert-butyl)-6-(3-((1S,4R)-4-((3-(tert-butyl)-[1,2,4]triazolo[4,3-a]pyridin-6-yl)oxy)-1,2,3,4-tetrahydronaphthalen-1-yl)ureido)-N-(1-methylazetidin-3-yl)pyrimidine-2-carboxamide] | < 8.30
7 | 8.00 to 9.00 | CN(CCO)C(=O)c1nc(NC(=O)N[C@H]2CC[C@@H](Oc3ccc4nnc(C(C)(C)C)n4c3)c3ccccc32)cc(C(C)(C)C)n1 [Example 82, 4-(tert-butyl)-6-(3-((1S,4R)-4-((3-(tert-butyl)-[1,2,4]triazolo[4,3-a]pyridin-6-yl)oxy)-1,2,3,4-tetrahydronaphthalen-1-yl)ureido)-N-(2-hydroxyethyl)-N-methylpyrimidine-2-carboxamide] | < 8.30
8 | > 9.00 | CC(C)(C)c1cc(NC(=O)N[C@H]2CC[C@@H](Oc3ccc4nnc(C(C)(C)C)n4c3)c3ccccc32)nc(C(=O)N[C@H]2C[C@H](CO)C2)n1 [Example 83, 4-(tert-butyl)-6-(3-((1S,4R)-4-((3-(tert-butyl)-[1,2,4]triazolo[4,3-a]pyridin-6-yl)oxy)-1,2,3,4-tetrahydronaphthalen-1-yl)ureido)-N-((1s,3R)-3-(hydroxymethyl)-cyclobutyl)pyrimidine-2-carboxamide] | 8.30 to 9.00
9 | > 9.00 | CCC(CC)c1nnc2ccc(O[C@@H]3CC[C@H](NC(=O)Nc4cc(C(C)(C)C)nc(C(=O)NC5CN(C)C5)n4)c4ccccc43)cn12 [Example 84, 4-(tert-butyl)-N-(1-methylazetidin-3-yl)-6-(3-((1S,4R)-4-((3-(pentan-3-yl)-[1,2,4]triazolo[4,3-a]pyridin-6-yl)oxy)-1,2,3,4-tetrahydronaphthalen-1-yl)ureido)pyrimidine-2-carboxamide] | < 8.30
10 | > 9.00 | CCC(CC)c1nnc2ccc(O[C@@H]3CC[C@H](NC(=O)Nc4cc(C(C)(C)C)nc(C(=O)NCCN(CCOC)CCOC)n4)c4ccccc43)cn12 [Example 85, N-(2-(bis(2-methoxyethyl)amino)ethyl)-4-(tert-butyl)-6-(3-((1S,4R)-4-((3-(pentan-3-yl)-[1,2,4]triazolo[4,3-a]pyridin-6-yl)oxy)-1,2,3,4-tetrahydronaphthalen-1-yl)ureido)pyrimidine-2-carboxamide] | < 8.30
11 | 8.00 to 9.00 | COCCN(CCOC)Cc1nc(NC(=O)N[C@H]2CC[C@@H](Oc3ccc4nnc(C(C)(C)C)n4c3)c3ccccc32)cc(C(C)(C)C)n1 [Example 86, 1-(2-((bis(2-methoxyethyl)amino)methyl)-6-(tert-butyl)pyrimidin-4-yl)-3-((1S,4R)-4-((3-(tert-butyl)-[1,2,4]triazolo[4,3-a]pyridin-6-yl)oxy)-1,2,3,4-tetrahydronaphthalen-1-yl)urea] | < 8.30
12 | > 9.00 | CC(C)(C)c1cc(NC(=O)N[C@H]2CC[C@@H](Oc3ccc4nnc(C(C)(C)C)n4c3)c3ccccc32)nc(CN(CCO)CCO)n1 [Example 87, 1-(2-((bis(2-hydroxyethyl)amino)methyl)-6-(tert-butyl)pyrimidin-4-yl)-3-((1S,4R)-4-((3-(tert-butyl)-[1,2,4]triazolo[4,3-a]pyridin-6-yl)oxy)-1,2,3,4-tetrahydronaphthalen-1-yl)urea] | < 8.30
13 | 8.00 to 9.00 | CN(CCO)Cc1nc(NC(=O)N[C@H]2CC[C@@H](Oc3ccc4nnc(C(C)(C)C)n4c3)c3ccccc32)cc(C(C)(C)C)n1 [Example 88, 1-(6-(tert-butyl)-2-(((2-hydroxyethyl)(methyl)amino)methyl)pyrimidin-4-yl)-3-((1S,4R)-4-((3-(tert-butyl)-[1,2,4]triazolo[4,3-a]pyridin-6-yl)oxy)-1,2,3,4-tetrahydronaphthalen-1-yl)urea] | < 8.30
14 | 8.00 to 9.00 | CC(C)(C)c1cc(NC(=O)N[C@H]2CC[C@@H](Oc3ccc4nnc(C(C)(C)C)n4c3)c3ccccc32)nc(C(=O)NCCN2CCCOCC2)n1 [Example 89, N-(2-(1,4-oxazepan-4-yl)ethyl)-4-(tert-butyl)-6-(3-((1S,4R)-4-((3-(tert-butyl)-[1,2,4]triazolo[4,3-a]pyridin-6-yl)oxy)-1,2,3,4-tetrahydronaphthalen-1-yl)ureido)pyrimidine-2-carboxamide] | 8.30 to 9.00
15 | 8.00 to 9.00 | CC(C)Cc1nnc2ccc(O[C@@H]3CC[C@H](NC(=O)Nc4cc(C(C)(C)C)nc(C(=O)NCCN(C)C)n4)c4ccccc43)cn12 [Example 91, 4-(tert-butyl)-N-(2-(dimethylamino)ethyl)-6-(3-((1S,4R)-4-((3-isobutyl-[1,2,4]triazolo[4,3-a]pyridin-6-yl)oxy)-1,2,3,4-tetrahydronaphthalen-1-yl)ureido)pyrimidine-2-carboxamide] | < 8.30
